Laboratory results from patent US20090181898A1, “ABUSE-RESISTANT A[…]” (SHIRE LLC, priority 2002, published 2009).
Marks after values point to notes of the source that are not given here.

Experiments:
[1] = Stability under treatment with commercially available acids and bases; format: physicochemical; conditions: 20° C.
Procedure: For acids and bases (Table 59), 10 mg of Lys-Amp was mixed with 2 mL of each stock solution, and the solution was shaken at 20° C. For enzyme treatment (Table 60), 10 mg Lys-Amp was mixed with 5 mL of each enzyme cocktail, and the solution was shaken at 37° C. […] Many of the commercially available reagents also contained various solvents and/or surfactants.
Unless otherwise indicated, solutions were used directly from the container and were combined with neat Lys-Amp solid. Lewis Red Devil® Lye, Enforcer Drain Care® Septic Treatment, and Rid-X® Septic Treatment were prepared as saturated solutions in H2O. Enzymes used were purchased from Sigma and directly dissolved in water (3 mg/mL pepsin, 10 mg/mL pancreatin, 3 mg/mL pronase, 3 mg/mL esterase), while enzyme-containing nutraceuticals such as Omnigest® and VitälZym® were first either crushed or opened (1 tablet or capsule per 5 mL of H2O).

[2] = Serum and brain tissue levels following oral administration (LC/MS/MS); conditions: rat, 5 mg/kg d-amphetamine base
[3] = Intranasal bioavailability of peptide amphetamine conjugates (HCl salts, ELISA); conditions: rat, parenteral routes
[4] = Oral PK study at a high dose (60 mg/kg), 8 h time course; conditions: rat; for Mean plasma amphetamine concentration: high dose 60 mg/kg
[5] = Oral bioavailability of L-lysine-d-amphetamine dimesylate at various doses 1.5-60 mg/kg (ELISA); conditions: rat
Procedure: The mean plasma concentrations for 1.5, 3, and 6 mg/kg are shown in Table 6, Table 7, and Table 8, respectively.

In the case of `CC(Cc1ccccc1)NC(=O)C(N)CCCCN` [L-lysine-d-amphetamine, 2,6-diaminohexanoic acid-(1-methyl-2-phenylethyl)-amide], the “Hydrolysis by commercial acids and bases” value ([1]; up to 24 h) is reported as “ineffective”, the d-amphetamine release ([1]; Miracle-Gro®) is reported as 7% and the d-amphetamine release ([1]; Olympic® Deck Cleaner) is reported as 4%. The “Intact conjugate in brain tissue” value [2] was “not detected”, the “Intact conjugate in serum” value [2] was “present in appreciable amounts” and the “Bioavailability by parenteral routes of administration” value [3] was “decreased parenteral bioavailability”.

For d-amphetamine, the AUC of d-amphetamine ([4]; 60 mg/kg) was 13420 ng·h/mL, the “Animals that died or were sacrificed due to acute symptoms of toxicity” value ([4]; 60 mg/kg) was 8 of 12 and the Cmax of d-amphetamine ([4]; 60 mg/kg) was 3623 ng/mL. The “Mean Peak of d-amphetamine” value ([4]; 60 mg/kg) was 2973 ng/mL, the “Mean Peak, Percent d-Amp” value ([4]; 60 mg/kg) was 100% and the “Mean plasma amphetamine concentration” value ([4]; 0.5 h) was 2643 ng/mL. For the same compound, the “Mean plasma amphetamine concentration” value ([4]; 1 h) was 2828 ng/mL, the “Mean plasma amphetamine concentration” value ([4]; 3 h (d-amphetamine n = 2)) was 2944* ng/ml and the “Mean plasma amphetamine concentration” value ([4]; 5 h (d-amphetamine n = 2)) was 153* ng/ml. For the same compound, the “Mean plasma amphetamine concentration” value ([4]; 8 h (d-amphetamine n = 1)) was 1309** ng/ml, the AUC of d-amphetamine ([5]; 3 mg/kg) was 587 ng·h/mL and the Cmax of d-amphetamine ([5]; 3 mg/kg) was 141 ng/mL. For the same compound, the Tmax of d-amphetamine ([5]; 3 mg/kg) was 60 min, the “Tmax, Percent (of Amp)” value ([5]; 3 mg/kg) was 100% and the “Mean plasma amphetamine concentration” value ([5]; 3 mg/kg, 0 h) was 0 ng/mL. The “Mean plasma amphetamine concentration” value ([5]; 3 mg/kg, 0.5 h) was 107 ng/mL, the “Mean plasma amphetamine concentration” value ([5]; 3 mg/kg, 1 h) was 121 ng/mL and the “Mean plasma amphetamine concentration” value ([5]; 3 mg/kg, 3 h) was 91 ng/mL. The “Mean plasma amphetamine concentration” value ([5]; 3 mg/kg, 5 h) was 62 ng/mL, the “Mean plasma amphetamine concentration” value ([5]; 3 mg/kg, 8 h) was 19 ng/mL and the AUC of d-amphetamine ([5]; 6 mg/kg) was 807 ng·h/mL. The Cmax of d-amphetamine ([5]; 6 mg/kg) was 205 ng/mL, the Tmax of d-amphetamine ([5]; 6 mg/kg) was 33.8 min and the “Tmax, Percent (of Amp)” value ([5]; 6 mg/kg) was 100%. For the same compound, the “Mean plasma amphetamine concentration” value ([5]; 6 mg/kg, 0 h) was 0 ng/mL, the “Mean plasma amphetamine concentration” value ([5]; 6 mg/kg, 0.5 h) was 186 ng/mL and the “Mean plasma amphetamine concentration” value ([5]; 6 mg/kg, 1 h) was 167 ng/mL. For the same compound, the “Mean plasma amphetamine concentration” value ([5]; 6 mg/kg, 3 h) was 111 ng/mL, the “Mean plasma amphetamine concentration” value ([5]; 6 mg/kg, 5 h) was 78 ng/mL and the “Mean plasma amphetamine concentration” value ([5]; 6 mg/kg, 8 h) was 35 ng/mL. The AUC of d-amphetamine ([5]; 12 mg/kg) was 2,738 ng · h/ml, the Cmax of d-amphetamine ([5]; 12 mg/kg) was 621 ng/mL and the Tmax of d-amphetamine ([5]; 12 mg/kg) was 56.3 min. For the same compound, the “Tmax, Percent (of Amp)” value ([5]; 12 mg/kg) was 100%, the “Mean plasma amphetamine concentration” value ([5]; 12 mg/kg, 0.5 h) was 621 ng/mL and the “Mean plasma amphetamine concentration” value ([5]; 12 mg/kg, 1 h) was 512 ng/mL. For the same compound, the “Mean plasma amphetamine concentration” value ([5]; 12 mg/kg, 3 h) was 376 ng/mL, the “Mean plasma amphetamine concentration” value ([5]; 12 mg/kg, 5 h) was 314 ng/mL and the “Mean plasma amphetamine concentration” value ([5]; 12 mg/kg, 8 h) was 103 ng/mL. The Cmax of d-amphetamine ([5]; 30 mg/kg) was 3,726 ng/ml, the “AUC of d-amphetamine (0-5 h)” value ([5]; 30 mg/kg, 0-5 h) was 12,623* ng · h/ml and the “Mean plasma amphetamine concentration” value ([5]; 30 mg/kg, 0.5 h) was 2,583 ng/ml. The “Mean plasma amphetamine concentration” value ([5]; 30 mg/kg, 1 h) was 3,162 ng/ml, the “Mean plasma amphetamine concentration” value ([5]; 30 mg/kg, 3 h) was 2,620 ng/ml and the “Mean plasma amphetamine concentration” value ([5]; 30 mg/kg, 5 h) was 1,535 ng/ml. For the same compound, the “Mean plasma amphetamine concentration” value ([5]; 30 mg/kg, 8 h) was 164 ng/mL, the Cmax of d-amphetamine ([5]; 60 mg/kg) was 4,101 ng/ml and the “AUC of d-amphetamine (0-[…])” value ([5]; 60 mg/kg, 0-[…]) was 5,081** ng · h/ml. The “Mean plasma amphetamine concentration” value ([5]; 60 mg/kg, 0.5 h) was 3,566 ng/ml, the “Mean plasma amphetamine concentration” value ([5]; 60 mg/kg, 1 h) was 3,556 ng/ml and the AUC of d-amphetamine ([5]; […]) was 481 ng·h/mL. For the same compound, the Cmax of d-amphetamine ([5]; […]) was 133 ng/mL, the Tmax of d-amphetamine ([5]; […]) was 56.3 min and the “Tmax, Percent (of Amp)” value ([5]; […]) was 100%. For the same compound, the “Mean plasma amphetamine concentration” value ([5]; […], 0 h) was 0 ng/mL, the “Mean plasma amphetamine concentration” value ([5]; […], 0.5 h) was 126 ng/mL and the “Mean plasma amphetamine concentration” value ([5]; […], 1 h) was 101 ng/mL. The “Mean plasma amphetamine concentration” value ([5]; […], 3 h) was 66 ng/mL, the “Mean plasma amphetamine concentration” value ([5]; […], 5 h) was 40 ng/mL and the “Mean plasma amphetamine concentration” value ([5]; […], 8 h) was 17 ng/mL.
